Test results as given in PMC11676667, “Pharmacokinetics of Oral Cannabinoid Δ8-Tetrahydrocannabivarin and Its Main Metabolites in Healthy Participants” (Pharmaceuticals, 2024).
Where two headings read alike, the source gives them in different places.

Legend:
[1] = Plasma pharmacokinetics after single oral dose of Δ8-THCV in MCT oil (LC-MS/MS, non-compartmental analysis); assay type: in vivo, human; parameters: Clast (last quantifiable concentration): unit not given here; conditions: for plasma concentration: Predose; for concentration at 0.5 h / concentration at 1 h / concentration at 2 h / concentration at 4 h / concentration at 6 h / concentration at 8 h / AUC(0-t) / Cmax / MRT / Tmax: human; for concentration at 0.5 h / concentration at 1 h / concentration at 2 h / concentration at 4 h / concentration at 6 h / concentration at 8 h: oral; for AUC(0-t) / Cmax / MRT / Tmax: po; for MRT: read-out: MRT (mean residence time); for Tmax: read-out: tmax
Procedure, shortened: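 Healthy participants received single oral Δ8-THCV in MCT oil (50 mg/mL; 12.5-200 mg, or placebo) after a high-fat, high-calorie breakfast, with ≥1-week washout. Plasma (K2EDTA) sampled predose and 0.5-8 h post-dose, assayed by validated LC-MS/MS including metabolites; PK by non-compartmental analysis, sub-LLOQ values set to 0.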

CB2 receptors = system: CB2 receptors; parameters: method as in PMID 21470208; conditions: in vitro; cited from earlier work
[2] = 12.5 mg single oral Δ8-THCV in MCT oil, plasma, Mean (±SD)
[3] = 12.5 mg single oral Δ8-THCV in MCT oil, plasma, Median (Range)
[4] = 25 mg single oral Δ8-THCV in MCT oil, plasma, Mean (±SD)
[5] = 25 mg single oral Δ8-THCV in MCT oil, plasma, Median (Range)
[6] = 50 mg single oral Δ8-THCV in MCT oil, plasma, Mean (±SD)
[7] = 50 mg single oral Δ8-THCV in MCT oil, plasma, Median (Range)
[8] = 100 mg single oral Δ8-THCV in MCT oil, plasma, Mean (±SD)
[9] = 100 mg single oral Δ8-THCV in MCT oil, plasma, Median (Range)
[10] = 200 mg single oral Δ8-THCV in MCT oil, plasma, Mean (±SD)
[11] = 200 mg single oral Δ8-THCV in MCT oil, plasma, Median (Range)
[12] = plasma, 12.5 mg, 12.5 mg Δ8-THCV dose, Mean (SD, %CV)
[13] = plasma, 12.5 mg, 12.5 mg Δ8-THCV dose, Median (IQ Range)
[14] = plasma, 25 mg, 25 mg Δ8-THCV dose, Mean (SD, %CV)
[15] = plasma, 25 mg, 25 mg Δ8-THCV dose, Median (IQ Range)
[16] = plasma, 50 mg, 50 mg Δ8-THCV dose, Mean (SD, %CV)
[17] = plasma, 50 mg, 50 mg Δ8-THCV dose, Median (IQ Range)
[18] = plasma, 100 mg, 100 mg Δ8-THCV dose, Mean (SD, %CV)
[19] = plasma, 100 mg, 100 mg Δ8-THCV dose, Median (IQ Range)
[20] = plasma, 200 mg, 200 mg Δ8-THCV dose, Mean (SD, %CV)
[21] = plasma, 200 mg, 200 mg Δ8-THCV dose, Median (IQ Range)
[22] = plasma, 12.5 mg, 12.5 mg single oral Δ8-THCV in MCT oil, Mean (±SD)
[23] = plasma, 12.5 mg, 12.5 mg single oral Δ8-THCV in MCT oil, Median (Range)
[24] = plasma, 12.5 mg, 12.5 mg single oral Δ8-THCV in MCT oil, plasma, Mean (±SD)
[25] = plasma, 12.5 mg, 12.5 mg single oral Δ8-THCV in MCT oil, plasma, Median (Range)
[26] = plasma, 25 mg, 25 mg single oral Δ8-THCV in MCT oil, Mean (±SD)
[27] = plasma, 25 mg, 25 mg single oral Δ8-THCV in MCT oil, Median (Range)
[28] = plasma, 25 mg, 25 mg single oral Δ8-THCV in MCT oil, plasma, Mean (±SD)
[29] = plasma, 25 mg, 25 mg single oral Δ8-THCV in MCT oil, plasma, Median (Range)
[30] = plasma, 50 mg, 50 mg single oral Δ8-THCV in MCT oil, Mean (±SD)
[31] = plasma, 50 mg, 50 mg single oral Δ8-THCV in MCT oil, Median (Range)
[32] = plasma, 50 mg, 50 mg single oral Δ8-THCV in MCT oil, plasma, Mean (±SD)
[33] = plasma, 50 mg, 50 mg single oral Δ8-THCV in MCT oil, plasma, Median (Range)
[34] = plasma, 100 mg, 100 mg single oral Δ8-THCV in MCT oil, Mean (±SD)
[35] = plasma, 100 mg, 100 mg single oral Δ8-THCV in MCT oil, Median (Range)
[36] = plasma, 100 mg, 100 mg single oral Δ8-THCV in MCT oil, plasma, Mean (±SD)
[37] = plasma, 100 mg, 100 mg single oral Δ8-THCV in MCT oil, plasma, Median (Range)
[38] = plasma, 200 mg, 200 mg single oral Δ8-THCV in MCT oil, Mean (±SD)
[39] = plasma, 200 mg, 200 mg single oral Δ8-THCV in MCT oil, Median (Range)
[40] = plasma, 200 mg, 200 mg single oral Δ8-THCV in MCT oil, plasma, Mean (±SD)
[41] = plasma, 200 mg, 200 mg single oral Δ8-THCV in MCT oil, plasma, Median (Range)

CCCc1cc(O)c2c(c1)OC(C)(C)[C@@H]1CC=C(CO)C[C@@H]21 (racemic) [11-OH-Δ8-THCV, (±)-11-hydroxy-Δ8-THCV]
Clast (last quantifiable concentration) [1, 2]: 0.8 (±0.2)
tlast (time to last quantifiable concentration) [1, 2]: 3.6 (±1.7)
Clast (last quantifiable concentration) [1, 3]: 0.8 (0.6–1.1)
tlast (time to last quantifiable concentration) [1, 3]: 4 (2–6)
Clast (last quantifiable concentration) [1, 4]: 0.8 (±0.1)
tlast (time to last quantifiable concentration) [1, 4]: 4.3 (±1.8)
Clast (last quantifiable concentration) [1, 5]: 0.8 (0.6–1)
tlast (time to last quantifiable concentration) [1, 5]: 4 (2–6)
Clast (last quantifiable concentration) [1, 6]: 0.9 (±0.3)
tlast (time to last quantifiable concentration) [1, 6]: 7.8 (±0.6)
Clast (last quantifiable concentration) [1, 7]: 0.8 (0.6–1.5)
tlast (time to last quantifiable concentration) [1, 7]: 8 (6–8)
Clast (last quantifiable concentration) [1, 8]: 1.4 (±0.9)
tlast (time to last quantifiable concentration) [1, 8]: 7.6 (±1.2)
Clast (last quantifiable concentration) [1, 9]: 1.1 (0.5–3.8)
tlast (time to last quantifiable concentration) [1, 9]: 8 (4–8)
Clast (last quantifiable concentration) [1, 10]: 3.7 (±2.6)
tlast (time to last quantifiable concentration) [1, 10]: 8 (±0)
Clast (last quantifiable concentration) [1, 11]: 3.1 (1.2–11.3)
tlast (time to last quantifiable concentration) [1, 11]: 8 (8–8)
plasma concentration ([1]; 12.5 mg Δ8-THCV dose, Mean (SD, %CV)): 0 (±0, --) ng/mL
plasma concentration ([1]; 12.5 mg Δ8-THCV dose, Median (IQ Range)): 0 (0–0) ng/mL
plasma concentration ([1]; 25 mg Δ8-THCV dose, Mean (SD, %CV)): 0 (±0, --) ng/mL
plasma concentration ([1]; 25 mg Δ8-THCV dose, Median (IQ Range)): 0 (0–0) ng/mL
plasma concentration ([1]; 50 mg Δ8-THCV dose, Mean (SD, %CV)): 0 (±0, --) ng/mL
plasma concentration ([1]; 50 mg Δ8-THCV dose, Median (IQ Range)): 0 (0–0) ng/mL
plasma concentration ([1]; 100 mg Δ8-THCV dose, Mean (SD, %CV)): 0 (±0, --) ng/mL
plasma concentration ([1]; 100 mg Δ8-THCV dose, Median (IQ Range)): 0 (0–0) ng/mL
plasma concentration ([1]; 200 mg Δ8-THCV dose, Mean (SD, %CV)): 0 (±0, --) ng/mL
plasma concentration ([1]; 200 mg Δ8-THCV dose, Median (IQ Range)): 0 (0–0) ng/mL
median AUClast ratio Δ8-THCV-COOH/Δ8-THCV/11-OH-Δ8-THCV ([1]; after the 200 mg dose, Δ8-THCV = 1): 0.18
concentration at 0.5 h [1, 12]: 0 ng/mL
concentration at 0.5 h [1, 13]: 0 ng/mL
concentration at 1 h [1, 12]: 0 ng/mL
concentration at 1 h [1, 13]: 0 ng/mL
concentration at 2 h [1, 12]: 0.1 ng/mL
concentration at 2 h [1, 13]: 0 ng/mL
concentration at 4 h [1, 12]: 0.1 ng/mL
concentration at 4 h [1, 13]: 0 ng/mL
concentration at 6 h [1, 12]: 0.1 ng/mL
concentration at 6 h [1, 13]: 0 ng/mL
concentration at 8 h [1, 12]: 0 ng/mL
concentration at 8 h [1, 13]: 0 ng/mL
concentration at 0.5 h [1, 14]: 0 ng/mL
concentration at 0.5 h [1, 15]: 0 ng/mL
concentration at 1 h [1, 14]: 0.1 ng/mL
concentration at 1 h [1, 15]: 0 ng/mL
concentration at 2 h [1, 14]: 0.3 ng/mL
concentration at 2 h [1, 15]: 0 ng/mL
concentration at 4 h [1, 14]: 0.2 ng/mL
concentration at 4 h [1, 15]: 0 ng/mL
concentration at 6 h [1, 14]: 0.2 ng/mL
concentration at 6 h [1, 15]: 0 ng/mL
concentration at 8 h [1, 14]: 0 ng/mL
concentration at 8 h [1, 15]: 0 ng/mL
concentration at 0.5 h [1, 16]: 0 ng/mL
concentration at 0.5 h [1, 17]: 0 ng/mL
concentration at 1 h [1, 16]: 0.1 ng/mL
concentration at 1 h [1, 17]: 0 ng/mL
concentration at 2 h [1, 16]: 0.4 ng/mL
concentration at 2 h [1, 17]: 0 ng/mL
concentration at 4 h [1, 16]: 0.6 ng/mL
concentration at 4 h [1, 17]: 0 ng/mL
concentration at 6 h [1, 16]: 1 ng/mL
concentration at 6 h [1, 17]: 0.9 ng/mL
concentration at 8 h [1, 16]: 0.6 ng/mL
concentration at 8 h [1, 17]: 0.6 ng/mL
concentration at 0.5 h [1, 18]: 0 ng/mL
concentration at 0.5 h [1, 19]: 0 ng/mL
concentration at 1 h [1, 18]: 1.4 ng/mL
concentration at 1 h [1, 19]: 0.5 ng/mL
concentration at 2 h [1, 18]: 1.8 ng/mL
concentration at 2 h [1, 19]: 1 ng/mL
concentration at 4 h [1, 18]: 2.1 ng/mL
concentration at 4 h [1, 19]: 1.3 ng/mL
concentration at 6 h [1, 18]: 2.4 ng/mL
concentration at 6 h [1, 19]: 1.5 ng/mL
concentration at 8 h [1, 18]: 1.3 ng/mL
concentration at 8 h [1, 19]: 1.1 ng/mL
concentration at 0.5 h [1, 20]: 0 ng/mL
concentration at 0.5 h [1, 21]: 0 ng/mL
concentration at 1 h [1, 20]: 1.2 ng/mL
concentration at 1 h [1, 21]: 0 ng/mL
concentration at 2 h [1, 20]: 4.5 ng/mL
concentration at 2 h [1, 21]: 1.8 ng/mL
concentration at 4 h [1, 20]: 5.2 ng/mL
concentration at 4 h [1, 21]: 3.4 ng/mL
concentration at 6 h [1, 20]: 4.6 ng/mL
concentration at 6 h [1, 21]: 3.7 ng/mL
concentration at 8 h [1, 20]: 3.7 ng/mL
concentration at 8 h [1, 21]: 3.1 ng/mL
AUC(0-t) [1, 22]: 0.7 ng·h/mL
Cmax [1, 22]: 0.8 ng/mL
AUC(0-t) [1, 23]: 0.8 ng·h/mL
Cmax [1, 23]: 0.8 ng/mL
MRT [1, 24]: 1.5 h
Tmax [1, 24]: 3.4 h
MRT [1, 25]: 1.4 h
Tmax [1, 25]: 4 h
AUC(0-t) [1, 26]: 1.5 ng·h/mL
Cmax [1, 26]: 0.9 ng/mL
AUC(0-t) [1, 27]: 0.8 ng·h/mL
Cmax [1, 27]: 0.8 ng/mL
MRT [1, 28]: 3.6 h
Tmax [1, 28]: 3.7 h
MRT [1, 29]: 3.6 h
Tmax [1, 29]: 4 h
AUC(0-t) [1, 30]: 6.2 ng·h/mL
Cmax [1, 30]: 2 ng/mL
AUC(0-t) [1, 31]: 5.3 ng·h/mL
Cmax [1, 31]: 1.9 ng/mL
MRT [1, 32]: 5.7 h
Tmax [1, 32]: 5 h
MRT [1, 33]: 6.1 h
Tmax [1, 33]: 6 h
AUC(0-t) [1, 34]: 13.9 ng·h/mL
Cmax [1, 34]: 4.3 ng/mL
AUC(0-t) [1, 35]: 12.4 ng·h/mL
Cmax [1, 35]: 3.4 ng/mL
MRT [1, 36]: 4.6 h
Tmax [1, 36]: 4.2 h
MRT [1, 37]: 4.3 h
Tmax [1, 37]: 5 h
AUC(0-t) [1, 38]: 30.8 ng·h/mL
Cmax [1, 38]: 8.7 ng/mL
AUC(0-t) [1, 39]: 29.5 ng·h/mL
Cmax [1, 39]: 6.4 ng/mL
MRT [1, 40]: 4.8 h
Tmax [1, 40]: 4.7 h
MRT [1, 41]: 4.7 h
Tmax [1, 41]: 4 h
number of positive plasma samples ([1]; of 504 plasma samples from 15 participants after oral Δ8-THCV): 157
concentration in representative plasma sample ([1]; one subject after oral Δ8-THCV in MCT oil, Figure A1): 11.8 ng/mL
tmax later after doses greater than 50 mg compared to the 12.5 mg and 25 mg doses ([1]; oral Δ8-THCV, plasma): 1.3 fold
CB2 receptor activation (CB2 receptors): activate CB2 receptors
